Experiments:
[1] = system: HCT 116 (colon), NCIH460 (lung) and U251 (glioma) cell lines; test: Anti-cancer screen (MTT growth inhibition, 48 hours); type: cell-based; conditions: Homo sapiens; HCT 116, NCIH460 and U251 cell lines; MTT after 48 hours of incubation;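 further: mean GI50 across the three cell lines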
Procedure: The experimental drugs were screened for anti-cancer activity in three cell lines using five concentrations for each compound. The cell lines—HCT 116 (colon), NCIH460 (lung) and U251 (glioma) were maintained in DMEM containing 10% fetal bovine serum. 96-well microtiter plates are inoculated with cells in 100 μL of cell suspension (5×10^4 cells/mL) for 24 hours at 37° C., 5% CO2, 95% air and 100% relative humidity. A separate plate with these cell lines is also inoculated to determine cell viability before the addition of the compounds (T0)
Following 24-hour incubation, test compounds were added to the 96 well plates. Each plate contains one of the above cell lines and the following samples in triplicate: five different dilutions (0.01, 0.1, 1, 10 and 100 μM) of four test compounds, appropriate dilutions of a cytotoxic standard and growth medium (untreated) wells. Test compounds were dissolved in DMSO to prepare 20 mM stock solutions on the day of drug addition and serial dilutions were carried out in complete growth medium at 2× strength, such that 100 μL added to the wells gave final concentrations (0.01, 0.1, 1, 10 and 100 μM) in the well. SAHA was used as the standard drug in these experiments.
For T0 measurement, 24 hours after seeding the cells, 20 μL of 3-(4,5-dimethyl-2-thiazolyl)-2,5-diphenyl-2H-tetrazolium (MTT) solution per well was added to the ‘T0’ plate and incubated for 3 hours at 37° C. in a CO2 incubator. The plate containing cells and test compounds was treated similarly after 48 hours of incubation. After 3 hours of MTT addition, well contents were aspirated carefully followed by addition of 150 μL DMSO per well. Plates were agitated to ensure dissolution of the formazan crystals in DMSO and absorbance was read at 570 nm (A570).
Percent growth (PG) is calculated relative to the control and zero measurement wells (T0) as follows:
PG values are plotted against drug concentration to derive the following: GI50 is the concentration required to decrease PG by 50% vs control; TGI is the concentration required to decrease PG by 100% vs control and LC50 is the concentration required to decrease PG by 50% vs T0. (Mosmann T. Rapid colorimetric assay for cellular growth and survival: application to proliferation and cytotoxicity assays. (J. Immunol. Methods. 1983, 65 (1-2), 55-63; Anne Monks et al); feasibility of high-flux anticancer drug screen using a diverse panel of cultured human tumor cell lines”. (JNCI, Vol. 83, No. 11, 1991). Results for growth inhibition of synthesized compounds are given in Table-1.

[2] = system: IL-6 in supernatant of NCIH 460 cells; test: Measuring IL-6 in culture supernatants (ELISA); type: cell-based; conditions: Homo sapiens, NCI-H460, 5 hours incubation

GI50 [1]	SMILES	inhibition at 10 µM [2]
11.4 µM	COC(=O)/C(=C/c1ccc(OCC(O)CNCCOc2ccccc2OC)cc1)c1ccc(F)cc1 (centres unmarked) [Example 41, 3-{4-[3-(2-Methoxyphenoxyethylamino)-2-hydroxypropoxy]phenyl}-2-(4-fluorophenyl)acrylic acid methyl ester]	68%
32.4 µM	COC(=O)/C(=C/c1cc(OC)cc(OC)c1)c1ccc(OCC(O)CNCc2ccc(OC(F)(F)F)cc2)cc1 (centres unmarked) [Example 4]	
3 µM	COC(=O)/C(=C/c1ccc(OCC(O)CNCc2ccc(OC)cc2OC)cc1)c1ccc(OC)cc1 (centres unmarked) [Example 12, 3-{4-[3-(2,4-Dimethoxybenzylamino)-2-hydroxypropoxyl]phenyl}-2-(4-methoxyphenyl)acrylic acid methyl ester]	55%
12.1 µM	COC(=O)/C(=C/c1ccc(F)cc1)c1ccc(OCC(O)CNCCOc2ccccc2OC)cc1 (centres unmarked) [Example 26, 2-{4-[3-(2-Methoxyphenoxyethylamino)-2-hydroxypropoxy]phenyl}-3-(4-fluorophenyl)acrylic acid methyl ester]	36.2%
2.8 µM	COC(=O)/C(=C/c1ccc(F)c(F)c1)c1ccc(OCC(O)CNCc2ccc(OC)cc2OC)cc1 (centres unmarked) [Example 15, 2-{4-[3-(2,4-Dimethoxybenzylamino)-2-hydroxypropoxyl]phenyl}-3-(3,4-difluorophenyl)acrylic acid methyl ester]	44%
16.1 µM	COC(=O)/C(=C/c1ccc(Cl)cc1)c1ccc(OCC(O)CNCc2ccc(OC)cc2OC)cc1 (centres unmarked) [Example 22, 2-{4-[3-(2,4-Dimethoxybenzylamino)-2-hydroxypropoxy]phenyl}-3-(4-chlorophenyl)acrylic acid methyl ester]	59.8%
12 µM	COC(=O)/C(=C/c1ccc(OCC(O)CNCc2ccccc2)cc1)c1ccc(F)cc1 (centres unmarked) [Example 36, 3-{4-[3-(Benzylamino)-2-hydroxypropoxy]phenyl}-2-(4-fluorophenyl)acrylic acid methyl ester]	27.9%
3.1 µM	COC(=O)/C(=C/c1ccc(OCC(O)CNCc2ccc(OC)cc2OC)cc1)c1ccccc1 (centres unmarked) [Example 16, 3-{4-[3-(2,4-Dimethoxybenzylamino)-2-hydroxypropoxyl]phenyl}-2-phenyl acrylic acid methyl ester]	68%
0.9 µM	COC(=O)/C(=C/c1ccc(OCC(O)CNCc2ccccc2)cc1)c1cccs1 (centres unmarked) [Example 31, 3-{4-[3-(Benzylamino)-2-hydroxypropoxy]phenyl}-2-(thiophen-2-yl)acrylic acid methyl ester]	2.1%
4 µM	COC(=O)/C(=C/c1ccc(OC)c(OC)c1)c1ccc(OCC(O)CNCCOc2ccccc2OC)cc1 (centres unmarked) [Example 14, 2-{4-[3-(2-Methoxyphenoxyethylamino)-2-hydroxypropoxyl]phenyl}-3-(3,4,-dimethoxyphenyl)acrylic acid methyl ester]	38%
0.6 µM	COC(=O)/C(=C/c1ccc(OC)cc1OC)c1ccc(OCC(O)CNCc2ccc(OC)cc2OC)cc1 (centres unmarked) [Example 32, 2-{4-[3-(2,4-Dimethoxybenzylamino)-2-hydroxypropoxy]phenyl}-3-(2,4-dimethoxyphenyl)acrylic acid methyl ester]	70.5%
2.2 µM	COC(=O)/C(=C/c1ccc(F)c(OC)c1)c1ccc(OCC(O)CNCCOc2ccccc2OC)cc1 (centres unmarked) [Example 7, 2-{4-[3-(2-Methoxyphenoxyethylamino)-2-hydroxypropoxyl]phenyl}-3-(4-fluoro-3-methoxyphenyl)acrylic acid methyl ester]	58%
1.6 µM	COC(=O)/C(=C/c1ccc(OCC(O)CNCCOc2ccccc2OC)cc1)c1cccc(Cl)c1 (centres unmarked) [Example 48, 3-{4-[3-(2-Methoxyphenoxyethylamino)-2-hydroxypropoxy]phenyl}-2-(3-chlorophenyl)acrylic acid methyl ester]	9%
37.3 µM	COC(=O)/C(=C/c1cc(OC)c(OC)c(OC)c1)c1ccc(OCC(O)CNCCOc2ccccc2OC)cc1 (centres unmarked) [Example 11, 2-{4-[3-(2-Methoxyphenoxyethylamino)-2-hydroxypropoxyl]phenyl}-3-(3,4,5-trimethoxyphenyl)acrylic acid methyl ester]	29%
> 100 µM	COC(=O)/C(=C/c1ccc(F)c(OC)c1)c1ccc(OCC(O)CNCc2ccc(OC)cc2OC)cc1 (centres unmarked) [Example 9, 2-{4-[3-(2,4-Dimethoxybenzylamino)-2-hydroxypropoxyl]phenyl}-3-(4-fluoro-3-methoxyphenyl)acrylic acid methyl ester]	34%
1.3 µM	COC(=O)/C(=C/c1ccc(SC)cc1)c1ccc(OCC(O)CNCc2ccc(OC)cc2OC)cc1 (centres unmarked) [Example 28, 2-{4-[3-(2,4-Dimethoxybenzylamino)-2-hydroxypropoxy]phenyl}-3-(4-(methylthio)phenyl)acrylic acid methyl ester]	78.5%
1.4 µM	COC(=O)/C(=C/c1ccc(OCC(O)CNCc2ccccc2)cc1)c1ccc(OC)cc1 (centres unmarked) [Example 30, 3-{4-[3-(Benzylamino)-2-hydroxypropoxy]phenyl}-2-(4-(methoxy)phenyl)acrylic acid methyl ester]	27.8%
5.3 µM	COC(=O)/C(=C/c1cc(OC)cc(OC)c1)c1ccc(OCC(O)CNCc2ccccc2)cc1 (centres unmarked) [Example 18, 2-{4-[3-(Benzylamino)-2-hydroxypropoxy]phenyl}-3-(3,5-dimethoxyphenyl)acrylic acid methyl ester]	25%
1.3 µM	COC(=O)/C(=C/c1ccc(OCC(O)CNCc2ccc(OC)cc2OC)cc1)c1cccc(Cl)c1 (centres unmarked) [Example 47, 3-{4-[3-(2,4-Dimethoxybenzylamino)-2-hydroxypropoxy]phenyl}-2-(3-chlorophenyl)acrylic acid methyl ester]	59%
3.5 µM	COC(=O)/C(=C/c1ccc(OC)c(OC)c1)c1ccc(OCC(O)CNCc2ccc(OC)cc2OC)cc1 (centres unmarked) [Example 13, 2-{4-[3-(2,4-Dimethoxybenzylamino)-2-hydroxypropoxyl]phenyl}-3-(3,4,-dimethoxyphenyl)acrylic acid methyl ester]	67%
11.7 µM	COC(=O)/C(=C/c1ccc(SC)cc1)c1ccc(OCC(O)CNCCOc2ccccc2OC)cc1 (centres unmarked) [Example 23, 2-{4-[3-(2-Methoxyphenoxy-ethylamino)-2-hydroxy-propoxy]-phenyl}-3-(4-(methylthio)phenyl)-acrylic acid methyl ester]	54.2%
12 µM	COC(=O)/C(=C/c1ccc(OCC(O)CNCCOc2ccccc2OC)cc1)c1ccccc1 (centres unmarked) [Example 42, 3-{4-[3-(2-Methoxyphenoxyethylamino)-2-hydroxypropoxy]phenyl}-2-phenylacrylic acid methyl ester]	13%
35.3 µM	COC(=O)/C(=C/c1ccc(OCC(O)CNCc2ccc(F)cc2)cc1)c1ccccc1 (centres unmarked) [Example 10, 3-{4-[3-(4-Fluorobenzylamino)-2-hydroxypropoxyl]phenyl}-2-phenylacrylic acid methyl ester]	4.5%
1.6 µM	COC(=O)/C(=C/c1ccccc1OCC(O)CNCCOc1ccccc1OC)c1ccc(OC)cc1 (centres unmarked) [Example 46, 3-{2-[3-(2-Methoxyphenoxyethylamino)-2-hydroxypropoxy]phenyl}-2-(4-methoxyphenyl)acrylic acid methyl ester]	48%
6.5 µM	COC(=O)/C(=C/c1ccc(Cl)cc1)c1ccc(OCC(O)CNCc2ccccc2)cc1 (centres unmarked) [Example 27, 2-{4-[3-(Benzylamino)-2-hydroxypropoxy]phenyl}-3-(4-chlorophenyl)acrylic acid methyl ester]	32.7%
1.2 µM	COC(=O)/C(=C/c1ccccc1OCC(O)CNCc1ccc(OC)cc1OC)c1ccc(OC)cc1 (centres unmarked) [Example 45, 3-{2-[3-(2,4-Dimethoxybenzylamino)-2-hydroxypropoxy]phenyl}-2-(4-methoxyphenyl)acrylic acid methyl ester]	56%
15.5 µM	COC(=O)/C(=C/c1ccccc1)c1ccc(OCC(O)CNCc2ccccc2)cc1 (centres unmarked) [Example 24, 2-{4-[3-(Benzylamino)-2-hydroxypropoxy]phenyl}-3-phenylacrylic acid methyl ester]	0%
